Assay results as given in patent US20070128217A1 (priority 2003, published 2007).

Experiments:
[1] = test system: rabbit serum obtained by immunizing a rabbit with the SARS-CoV strain Frankfurt 1; assay type: binding; design: Binding of a rabbit serum to linear peptides / Binding of a rabbit serum to looped peptides / Rabbit serum linear peptides / Rabbit serum looped peptides / Binding of a rabbit serum to linear peptides of protein N of SARS-CoV Urbani (Rabbit serum linear peptides) / Binding of a rabbit serum to looped/cyclic peptides of protein N of SARS-CoV Urbani (Rabbit serum looped peptides): unit not given here
[2] = test system: recombinant human anti-SARS-CoV antibody 03-018; assay type: binding; design: Binding of antibody 03-018 to linear peptides of the N protein of SARS-CoV Urbani / Binding of antibody 03-018 to looped/cyclic peptides of the N protein of SARS-CoV Urbani: unit not given here
[3] = test system: antibodies in sera from SARS patients (sera 1a, 1b, 2, 6, 37, 62, London, SARS-yellow, SARS-green); assay type: binding, human; design: Binding of serum 6 to linear peptides of protein X1 of SARS-CoV Urbani / Binding of serum 37 to linear peptides of protein X1 of SARS-CoV Urbani / Binding of serum 6 to looped/cyclic peptide (PEPSCAN-ELISA) / Binding of serum 37 to looped/cyclic peptide (PEPSCAN-ELISA) / Binding of serum 37 to looped/cyclic peptides of protein X1 of SARS-CoV Urbani / Binding of serum 6 to linear peptides of protein X2 / Binding of serum 37 to linear peptides of protein X2 / Binding of serum 37 to looped/cyclic peptides of protein X2 of SARS-CoV Urbani / Binding of serum 6 to linear peptides of protein M of SARS-CoV Urbani / Binding of serum 37 to linear peptides of protein M of SARS-CoV Urbani / Binding of serum 6 to looped/cyclic peptides of protein M of SARS-CoV Urbani / Binding of serum 37 to looped/cyclic peptides of protein M of SARS-CoV Urbani / Binding of serum 6 to linear peptides of protein X3 of SARS-CoV Urbani / Binding of serum 37 to linear peptides of protein X3 of SARS-CoV Urbani / Binding of serum 37 to looped/cyclic peptides of protein X3 of SARS-CoV Urbani / Binding of serum 6 to linear peptides of protein X4 of SARS-CoV Urbani / Binding of serum 37 to linear peptides of protein X4 of SARS-CoV Urbani / Binding of serum 37 to looped/cyclic peptides of protein X4 of SARS-CoV Urbani / Binding of serum 6 to linear peptides of protein X5 of SARS-CoV Urbani / Binding of serum 37 to linear peptides of protein X5 of SARS-CoV Urbani / Binding of serum 37 to looped/cyclic peptides of protein X5 of SARS-CoV Urbani / Binding of serum 6 to linear peptides of protein N of SARS-CoV Urbani / Binding of serum 37 to linear peptides of protein N of SARS-CoV Urbani / Binding of serum 6 to linear peptide (PEPSCAN-ELISA) / Binding of serum 1a to looped/cyclic peptides of protein N of SARS-CoV Urbani / Binding of serum 1b to looped/cyclic peptides of protein N of SARS-CoV Urbani / Binding of serum 2 to looped/cyclic peptides of protein N of SARS-CoV Urbani / Binding of serum 6 to looped/cyclic peptides of protein N of SARS-CoV Urbani / Binding of serum 37 to looped/cyclic peptides of protein N of SARS-CoV Urbani / Binding of serum 62 to looped/cyclic peptides of protein N of SARS-CoV Urbani / Binding of serum London to looped/cyclic peptides of protein N of SARS-CoV Urbani / Binding of serum SARS-green to looped/cyclic peptides of protein N of SARS-CoV Urbani: unit not given here
[4] = test system: control sera (pooled serum of ten healthy LUMC hospital workers; commercial negative donor pooled serum from the Dutch bloodbank); assay type: binding, human; design: Binding of Control serum LUMC to linear peptides / Binding of Control serum Blood-bank to linear peptides / Binding of Control serum LUMC to looped peptides / Binding of Control Serum Blood-Bank to Looped peptides / Binding of Control serum LUMC to linear peptides of the protein M of SARS-CoV Urbani / Binding of Control serum Blood-bank to linear peptides of the protein M of SARS-CoV Urbani / Binding of Control serum LUMC to looped peptides of the protein M of SARS-CoV Urbani / Binding of Control Serum Blood-Bank to Looped peptides of the protein M of SARS-CoV Urbani: unit not given here

Sequence	Binding of a rabbit serum to linear peptides of protein N of SARS-CoV Urbani (Rabbit serum linear peptides) [1]	Binding of a rabbit serum to looped/cyclic peptides of protein N of SARS-CoV Urbani (Rabbit serum looped peptides) [1]	Binding of antibody 03-018 to linear peptides of the N protein of SARS-CoV Urbani [2]	Binding of antibody 03-018 to looped/cyclic peptides of the N protein of SARS-CoV Urbani [2]	Binding of serum 1a to linear peptides of protein N of SARS-CoV Urbani [3]	Binding of serum 1a to looped/cyclic peptides of protein N of SARS-CoV Urbani [3]	Binding of serum 1b to linear peptides of protein N of SARS-CoV Urbani [3]	Binding of serum 1b to looped/cyclic peptides of protein N of SARS-CoV Urbani [3]	Binding of serum 2 to linear peptides of protein N of SARS-CoV Urbani [3]	Binding of serum 2 to looped/cyclic peptides of protein N of SARS-CoV Urbani [3]	Binding of serum 6 to linear peptides of protein N of SARS-CoV Urbani [3]	Binding of serum 6 to looped/cyclic peptides of protein N of SARS-CoV Urbani [3]	Binding of serum 37 to linear peptides of protein N of SARS-CoV Urbani [3]	Binding of serum 37 to looped/cyclic peptides of protein N of SARS-CoV Urbani [3]	Binding of serum 62 to linear peptides of protein N of SARS-CoV Urbani [3]	Binding of serum 62 to looped/cyclic peptides of protein N of SARS-CoV Urbani [3]	Binding of serum London to linear peptides of protein N of SARS-CoV Urbani [3]	Binding of serum London to looped/cyclic peptides of protein N of SARS-CoV Urbani [3]	Binding of serum SARS-green to linear peptides of protein N of SARS-CoV Urbani [3]	Binding of serum SARS-green to looped/cyclic peptides of protein N of SARS-CoV Urbani [3]	further results
YGANKEGIVWVATEG	0.1	0.5	0.1	0.2	0.3	0.4	0.1	0.3	0.2	0.5	0.2	0.3	0.8	0.8	0.7	0.7	0.4	0.4	0.4	0.4	Binding of serum SARS-yellow to linear peptides of protein N of SARS-CoV Urbani [3]: 0.7; Binding of serum SARS-yellow to looped/cyclic peptides of protein N of SARS-CoV Urbani [3]: 0.7; Binding of Control Serum Blood-Bank to Looped peptides [4]: 0.7; Binding of Control serum Blood-bank to linear peptides [4]: 0.6; Binding of Control serum LUMC to linear peptides [4]: 0.6; Binding of Control serum LUMC to looped peptides [4]: 0.7
YHGAIKLDDKDPQFK	0.2	0.3	0.1	0.2	0.3	0.2	0.2	0.1	0.3	0.2	0.2	0.1	0.8	0.4	1.6	0.3	0.7	0.3	0.9	0.1	Binding of serum SARS-yellow to linear peptides of protein N of SARS-CoV Urbani [3]: 0.7; Binding of serum SARS-yellow to looped/cyclic peptides of protein N of SARS-CoV Urbani [3]: 0.1; Control Serum Blood-Bank Looped peptides [4]: 0.4; Control serum Blood-bank linear peptides [4]: 0.9; Control serum LUMC linear peptides [4]: 0.9; Control serum LUMC looped peptides [4]: 0.3
